We go through 22 compounds from PMC10719919 (ACS Omega, 2023).

The structures appear in SMILES notation.

Series [1] addresses AChE (Electrophorus electricus, UniProt O42275). In words: Enzyme kinetics of AChE inhibition. Format: biochemical. The settings on record: for Vmax (μmol/min)^−^1: Vmax of AChE, not apparent.
Series [2] addresses AChE EC 3.1.1.7 (Electrophorus electricus, UniProt O42275). The series can be described thus: biochemical.
Series [3] has as its system rabbit jejunum. The series can be described thus: Spasmolytic activity on spontaneous contraction of isolated rabbit jejunum. The settings on record: spontaneously contracting isolated rabbit jejunum; Mean ± SEM, n = 3.
In series [4] the test system is rabbit jejunum. The settings on record: high K+ (80 mM)-contracted isolated rabbit jejunum; Mean ± SEM, n = 3.
Series [5] is described as follows: Cytotoxicity: human neutrophil viability assay. Format: cell-based. The settings on record: human.
In series [6] the test system is human neutrophils. The series can be described thus: Cytotoxicity: human neutrophil viability assay. In kind it is cell-based. The settings on record: 200 μg/mL.

Sequence of AChE EC 3.1.1.7 (O42275 24-633): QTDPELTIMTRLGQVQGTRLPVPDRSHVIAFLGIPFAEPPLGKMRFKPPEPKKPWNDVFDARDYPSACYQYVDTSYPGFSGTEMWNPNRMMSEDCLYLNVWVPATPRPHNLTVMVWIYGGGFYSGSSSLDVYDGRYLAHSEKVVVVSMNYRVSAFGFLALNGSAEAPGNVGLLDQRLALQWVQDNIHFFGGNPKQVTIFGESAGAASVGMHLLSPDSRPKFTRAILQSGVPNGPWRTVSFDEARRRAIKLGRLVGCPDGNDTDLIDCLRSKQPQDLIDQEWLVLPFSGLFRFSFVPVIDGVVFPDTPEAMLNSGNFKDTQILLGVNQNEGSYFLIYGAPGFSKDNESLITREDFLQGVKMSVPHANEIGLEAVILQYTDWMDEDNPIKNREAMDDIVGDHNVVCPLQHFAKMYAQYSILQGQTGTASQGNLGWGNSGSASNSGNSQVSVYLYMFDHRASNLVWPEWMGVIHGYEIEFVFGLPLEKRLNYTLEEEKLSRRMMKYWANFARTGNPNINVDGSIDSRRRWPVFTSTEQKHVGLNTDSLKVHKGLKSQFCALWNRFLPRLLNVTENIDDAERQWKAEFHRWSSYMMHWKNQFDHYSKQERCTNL
Sequence of AChE (O42275 24-633): as above

In the case of `CCSc1nc2ccccc2n1Cc1nnc(-c2ccc(F)cc2)o1` [Compound 15, 2-((2-(Ethylthio)-1H-benzo[d]imidazole-1-yl)methyl)-5-(4-fluorophenyl)-1,3,4-oxadiazole], in series [1], the affinity corresponds to a Ki of 53.3 ± 1.4 µM, the type of inhibition entry is reported as “noncompetitive” and the “Vmax (μmol/min)^−^1” value is listed as 5.0 (μmol/min)^−^1. For the same compound, the IC50 in series [2] stood at 130.5 ± 1.03 µM.
For the compound `CCCCCCCc1nnc(Cn2c(SCC)nc3ccccc32)o1` [Compound 16, 2-((2-(Ethylthio)-1H-benzo[d]imidazole-1-yl)methyl)-5-heptyl-1,3,4-oxadiazole], in series [1], the affinity corresponds to a Ki of 18.3 ± 1.7 µM, the type of inhibition result is “noncompetitive” and the “Vmax (μmol/min)^−^1” value is given as 5.0 (μmol/min)^−^1. For the same compound, the “Effective dose (ED50), Spontaneous” value in series [3] was determined as 0.12 ± 0.00 µg/mL. Besides, the “Effective dose (ED50), High K+” value in series [4] was 0.22 ± 0.01 µg/mL. In series [5], this compound gave a viability at 30 min, 200 µg/ml of 96.1 ± 2.5%. In addition, the “toxicity in the neutrophil viability assay (in words)” value in series [6] was “nontoxic”. In addition, in series [2], the midpoint of inhibition, the IC50, lay at 41.9 ± 0.67 µM.
Consider `CCSc1nc2ccccc2n1Cc1nnc(-c2ccco2)o1` [Compound 17, 2-((2-(Ethylthio)-1H-benzo[d]imidazole-1-yl)methyl)-5-(furan-2-yl)-1,3,4-oxadiazole], for which, in series [1], the Ki came out at 24.3 ± 1.3 µM, the type of inhibition entry was “noncompetitive” and the “Vmax (μmol/min)^−^1” value is reported as 5.0 (μmol/min)^−^1. Besides, in series [3], the “Effective dose (ED50), Spontaneous” value amounted to 0.13 ± 0.07 µg/mL. Further, the “Effective dose (ED50), High K+” value in series [4] is 0.26 ± 0.05 µg/mL. Also, in series [5], the viability at 30 min, 200 µg/ml was 100 ± 1%. In series [6], the “toxicity in the neutrophil viability assay (in words)” value is listed as “nontoxic”. In series [2], the half-inhibitory concentration (IC50) is 69.7 ± 0.95 µM.
Turning to `CCSc1nc2ccccc2n1Cc1nnc(-c2cccc(OC)c2O)o1` [Compound 18, 2-(5-((2-(Ethylthio)-1H-benzo[d]imidazole-1-yl)methyl)-1,3,4-oxadiazol-2-yl)-6-methoxyphenol], in series [1], the Ki stood at 98.77 ± 0.7 µM, the type of inhibition result is “noncompetitive” and the “Vmax (μmol/min)^−^1” value is on record as 5.0 (μmol/min)^−^1. The same compound displayed an IC50 in series [2] of 248.8 ± 1.02 µM.
For `CCOc1cccc(-c2nnc(Cn3c(SCC)nc4ccccc43)o2)c1O` [Compound 19, 2-Ethoxy-6-(5-((2-(ethylthio)-1H-benzo[d]imidazole-1-yl)methyl)-1,3,4-oxadiazol-2-yl)phenol], in series [1], the inhibition constant (Ki) was 93.3 ± 1.5 µM, the type of inhibition entry is reported as “noncompetitive” and the “Vmax (μmol/min)^−^1” value is 5.0 (μmol/min)^−^1. Moreover, inhibition in series [2] was half-maximal at 223.5 ± 0.96 µM (IC50).
On the same counts, the results for `CCSc1nc2ccccc2n1Cc1nnc(-c2ccc(OC)cc2)o1` [Compound 20, 2-((2-(Ethylthio)-1H-benzo[d]imidazole-1-yl)methyl)-5-(4-methoxyphenyl)-1,3,4-oxadiazole] are 147 ± 1.9 µM, “noncompetitive”, 5.0 (μmol/min)^−^1 and 380.1 ± 0.87 µM.
On the same counts, the results for `CCSc1nc2ccccc2n1Cc1nnc(-c2ccccc2OC)o1` [Compound 21, 2-((2-(Ethylthio)-1H-benzo[d]imidazole-1-yl)methyl)-5-(2-methoxyphenyl)-1,3,4-oxadiazole] are 112 ± 1.3 µM, “noncompetitive”, 5.0 (μmol/min)^−^1 and 291.9 ± 1.52 µM.
On the same counts, the results for `CCSc1nc2ccccc2n1Cc1nnc(-c2ccc(C)o2)o1` [Compound 22, 2-((2-(Ethylthio)-1H-benzo[d]imidazole-1-yl)methyl)-5-(5-methylfuran-2-yl)-1,3,4-oxadiazole] are 32.1 ± 1.4 µM, “noncompetitive”, 5.0 (μmol/min)^−^1 and 97.94 ± 0.79 µM.
With `CCSc1nc2ccccc2n1Cc1nnc(-c2ccccc2Cl)o1` [Compound 23, 2-(2-Chlorophenyl)-5-((2-(ethylthio)-1H-benzo[d]imidazole-1-yl)methyl)-1,3,4-oxadiazole], in series [1], the Ki came out at 45.1 ± 0.9 µM, the type of inhibition entry is recorded as “noncompetitive” and the “Vmax (μmol/min)^−^1” value was 5.0 (μmol/min)^−^1. Moreover, the IC50 in series [2] was found to be 118 ± 1.41 µM.
On the same counts, the results for `CCSc1nc2ccccc2n1Cc1nnc(-c2ccc(OC)c(OC)c2)o1` [Compound 24, 2-(3,4-Dimethoxyphenyl)-5-((2-(ethylthio)-1H-benzo[d]imidazole-1-yl)methyl)-1,3,4-oxadiazole] are 284.2 ± 1.2 µM, “noncompetitive”, 5.0 (μmol/min)^−^1 and 692 ± 0.99 µM.
For the compound `CCSc1nc2ccccc2n1Cc1nnc(-c2ccc(Cl)cc2)o1` [Compound 25, 2-(4-Chlorophenyl)-5-((2-(ethylthio)-1H-benzo[d]imidazole-1-yl)methyl)-1,3,4-oxadiazole], in series [1], the Ki amounted to 83.21 ± 0.6 µM, the type of inhibition result is on record as “noncompetitive” and the “Vmax (μmol/min)^−^1” value is recorded as 5.0 (μmol/min)^−^1. Also, half-maximal inhibition in series [2] (IC50) required 208.3 ± 1.39 µM.
On the same counts, the results for `CCSc1nc2ccccc2n1Cc1nnc(-c2ccc(O)cc2)o1` [Compound 26, 4-(5-((2-(Ethylthio)-1H-benzo[d]imidazole-1-yl)methyl)-1,3,4-oxadiazol-2-yl)phenol] are 30.5 ± 1.9 µM, “noncompetitive”, 5.0 (μmol/min)^−^1 and 93.2 ± 0.96 µM.
Regarding `CCSc1nc2ccccc2n1Cc1nnc(-c2cc(OC)c(OC)c(OC)c2)o1` [Compound 27, 2-((2-(Ethylthio)-1H-benzo[d]imidazole-1-yl)methyl)-5-(3,4,5-trimethoxyphenyl)-1,3,4-oxadiazole], in series [1], the Ki was found to be 775.02 ± 0.5 µM, the type of inhibition entry is recorded as “noncompetitive” and the “Vmax (μmol/min)^−^1” value is 5.0 (μmol/min)^−^1. The half-maximal inhibitory concentration (IC50) in series [2] worked out at 1580.2 ± 0.76 µM.
The matching figures for `CCSc1nc2ccccc2n1Cc1nnc(-c2ccc([N+](=O)[O-])cc2)o1` [Compound 28, 2-((2-(Ethylthio)-1H-benzo[d]imidazole-1-yl)methyl)-5-(4-nitrophenyl)-1,3,4-oxadiazole]: 289.2 ± 0.8 µM, “noncompetitive”, 5.0 (μmol/min)^−^1 and 750.9 ± 1.19 µM.
On the same counts, the results for `CCSc1nc2ccccc2n1Cc1nnc(-c2ccc(F)c(OC)c2)o1` [Compound 29, 2-((2-(Ethylthio)-1H-benzo[d]imidazole-1-yl)methyl)-5-(4-fluoro-3-methoxyphenyl)-1,3,4-oxadiazole] are 34.2 ± 0.9 µM, “noncompetitive”, 5.0 (μmol/min)^−^1 and 84.2 ± 1.99 µM.
On the same counts, the results for `CCSc1nc2ccccc2n1Cc1nnc(-c2ccc(O)cc2O)o1` [Compound 30, 4-(5-((2-(Ethylthio)-1H-benzo[d]imidazole-1-yl)methyl)-1,3,4-oxadiazol-2-yl)benzene-1,3-diol] are 456.71 ± 0.2 µM, “noncompetitive”, 5.0 (μmol/min)^−^1 and 1190 ± 0.65 µM.
For the compound `CCSc1nc2ccccc2n1Cc1nnc(-c2ccccc2O)o1` [Compound 31, 2-(5-((2-(Ethylthio)-1H-benzo[d]imidazole-1-yl)methyl)-1,3,4-oxadiazol-2-yl)phenol], in series [1], the affinity corresponds to a Ki of 89.5 ± 1.5 µM, the type of inhibition entry is reported as “noncompetitive” and the “Vmax (μmol/min)^−^1” value is listed as 5.0 (μmol/min)^−^1. In series [2], the concentration for half-maximal inhibition (IC50) was 248.5 ± 1.81 µM.
On the same counts, the results for `CCSc1nc2ccccc2n1Cc1nnc(-c2cccc(O)c2)o1` [Compound 32, 3-(5-((2-(Ethylthio)-1H-benzo[d]imidazole-1-yl)methyl)-1,3,4-oxadiazol-2-yl)phenol] are 148.8 ± 0.2 µM, “noncompetitive”, 5.0 (μmol/min)^−^1 and 400.7 ± 0.95 µM.
The matching figures for `CCSc1nc2ccccc2n1Cc1nnc(-c2cccc(O)c2O)o1` [Compound 33, 3-(5-((2-(Ethylthio)-1H-benzo[d]imidazole-1-yl)methyl)-1,3,4-oxadiazol-2-yl)benzene-1,2-diol]: 121 ± 0.5 µM, “noncompetitive”, 5.0 (μmol/min)^−^1 and 320.6 ± 1.12 µM.
The matching figures for `CCSc1nc2ccccc2n1Cc1nnc(-c2ccc(C)cc2)o1` [Compound 34, 2-((2-(Ethylthio)-1H-benzo[d]imidazole-1-yl)methyl)-5-(p-tolyl)-1,3,4-oxadiazole]: 135.2 ± 0.5 µM, “noncompetitive”, 5.0 (μmol/min)^−^1 and 377.4 ± 1.57 µM.
As for `CCSc1nc2ccccc2n1Cc1nnc(-c2ccc(N(CC)CC)cc2)o1` [Compound 35, N,N-Diethyl-4-(5-((2-(ethylthio)-1H-benzo[d]imidazole-1-yl)methyl)-1,3,4-oxadiazol-2-yl)aniline], in series [1], the affinity, expressed as Ki, was 101.3 ± 0.3 µM; the type of inhibition entry is reported as “noncompetitive”; the “Vmax (μmol/min)^−^1” value is recorded as 5.0 (μmol/min)^−^1. In series [2], this compound returned an IC50 of 258.1 ± 1.02 µM.
On to `COc1ccc2c3c1O[C@H]1C[C@@H](O)C=C[C@@]31CCN(C)C2` [Galanthamine, reference compound], for which the viability at 30 min, 200 µg/ml in series [5] was 96 ± 3.1%.
